In patent US20140302022A1, “2-CARBOXAMIDE CLYCLOAMINO UREA DERIVATIVES FOR USE IN TREATING VEGF-DEPENDENT DISEASES” (priority 2011, published 2014):
Values joined by “and” are separate entries in the source; they are usually repeats but may differ in a detail not shown here. Equal entries are not always repeated.

Tests used:
[1] = system: angiogenic response induced by VEGF; experiment: In vivo chamber implant angiogenesis assay, VEGF-stimulated; parameters: species or system FVB mice
Protocol: (§1) Porous perfluoro-alkoxy-Teflon® chambers containing PBS or VEGF (2 μg/mL) in 0.5 ml of 0.8% w/v agar (containing heparin, 20 U/mL) were implanted subcutaneously in the flank of FVB mice. Animals were treated orally either with Compound A at 12.5, 25 and 50 mg/kg once a day or vehicle (5 ml/kg) starting 4-6 hours before implantation of the chambers and daily for 3 days. VEGF induces the growth of vascularized tissue around the chamber. The angiogenic response can be quantified by measuring the weight and Tie-2 levels of the tissue. Animals were sacrificed 4 days after the implantation. Values are mean±SEM. *p<0.05, statistical significance of inhibition. The total number of animals per group is given in brackets.
(§2) Sterile tissue chambers made of perfluoro-alkoxy-Teflon® were filled with 500 μl molten 0.8% w/v agar containing 20 U/mL heparin (Novo Nordisk A/S, Bagsvaerd, Denmark) with or without growth factor (dog VEGF 2 μg/mL or phosphate buffer saline (PBS/O)). The chamber was implanted aseptically under isoflurane anesthesia through a small incision on the back of the animal and the incision was closed by wound clips. Animals were treated orally either with Compound A at 12.5, 25 or 50 mg/kg once a day formulated in a vehicle of NMP/PEG300 (10/90, V/V) or vehicle alone starting 4-6 hours before implantation of the chambers and daily for three days. VEGF induces the growth of vascularized tissue around the chamber. The angiogenic response can be quantified by measuring the weight and Tie-2 levels of the tissue.
(§3) Four days after implantation, animals were sacrificed using CO2. The chambers were recovered from the animal and the vascularized tissue that had formed around each implant was carefully removed and weighed. Tissue samples were homogenized for 30 sec at 24000 rpm (Ultra Turrax T25) after addition of 1 mL of Ripa buffer (Tris-HCl 50 mM, NaCl 120 mM, EDTA 1 mM, EGTA 6 mM, NP-40 1%, Sodium fluoride 20 mM, Pefabloc SC 1 mM, Sodium vanadate 1 mM). The samples were then centrifuged for 1 h at 7000 rpm. The supernatant was filtered using a 0.45 μm syringe filter (Acrodisc® GF, Gelman Sciences, Ann Arbor, Mich., USA) to avoid fat contamination.
Tie-2 is a receptor tyrosine kinase which is specifically expressed on endothelial cells. For Tie-2 level determination, Nunc (Naperville, Ill.) Maxisorp 96-well plates were coated over night at 4° C. with the capture antibody, anti-Tie-2 AB33 (UBI, Hauppauge, N.Y.), with a concentration of 2 μg/mL (100 μL/well). Wells were washed in TPBS (Tween 80 PBS) and blocked by incubating with 3% Top-Block (Juro, Lucerne, Switzerland) for 2 hours at room temperature. 300 μg of protein lysates were added and incubated for 2 hours, and the wells washed three times before addition of a goat anti-mouse Tie-2 antibody (R&D Systems, Minneapolis, Minn.; 0.5 μg/mL) and an alkaline phosphate conjugated anti-goat antibody (Sigma, St. Louis, Mo.; diluted 1:6,000) in TPBS+0.1%Top-Block for 1 hour at room temperature. Tie-2 antibody complexes were detected after incubation with p-nitrophenyl phosphate substrate (Sigma). The absorbance of the spectro-photometric reaction was determined with an ELISA reader at 405 nm. Recombinant human extracellular domain of Tie-2 fused to the constant regions of human IgG1 (sTie-2Fc) dissolved in RIPA buffer was used as standard in a concentration range from 0.1 to 300 ng/well
(§4) Four days after the subcutaneous implantation of the VEGF containing chambers, VEGF induced the formation of a thick layer of neovascularised tissue (called capsule) that grew around the implant. PBS containing chambers induced a much thinner layer of tissue with very few blood vessels around control chamber. Tissue formation can be quantified by measuring the weight and the angiogenic response can be quantified by measuring the Tie-2 levels of the capsule. An ELISA assay can quantitatively measure endothelial cells in tissue extracts to evaluate the vascularization of the tissue. […]

BN472 tumors [2] = experiment: Tumor interstitial fluid pressure (IFP) by radio-telemetry; type: in vivo, Brown-Norway (BN) rats
Protocol: FIG. 4: Effects of Compound A on tumor interstitial fluid pressure. (A) Orthotopic BN472 tumor bearing rats containing a pressure sensing catheter inserted in the tumor were treated with Compound A at 25 mg/kg (n=6; initial IFP: 25.4 mmHg±2.8), or with the vehicle control (n=9; 18.2 mmHg±1.5) for 3 consecutive days. The IFP was recorded for 72 h and variations (delta towards initial values) plotted (gray lines: untreated animals; dark line: applied treatment as indicated in the graph). Data presented are means±SEM. (B) Same as in A except that additional animals were treated orally with a lower dose of 12.5 mg/kg Compound A (n=3; initial IFP: 18.8 mmHg±2.3; gray line). Recording was extended for 3 additional days post last treatment to assess recovery patterns. The arrows represent the administration schedule. Gray bars represent night time.
The IFP of BN472 tumors was measured in conscious, freely moving rats maintained in their home cage using an adapted fully implantable miniaturized radio-telemetry system (Data Sciences Int., St. Paul, Minn.) composed of 4 basic components: an implantable transmitter (AM unit, model TLM-PAC10, volume: 1.1 cc, weight: 1.4 g) which continuously senses and transmits information from within the animal, one receiver located under the home cage, a matrix interface for coordination of signals and a computer-based data acquisition system for collection, analysis and storage of data. The body of the transmitter was implanted s.c. under aseptic conditions into the flank of the animal under isofluorane anaesthesia (3% Isoflurane in O2). Briefly, once animals are fully unconscious, they are placed on a heated blanket and the abdominal area is shaved. The ventral surface of the abdomen is then prepared by swabbing the skin with povidone iodine surgical scrub. With the animal supine, a skin incision of approximately 30 mm is made along the midline of the abdomen and the skin separated from the muscle wall building an air pocket. The sterile transmitter is then positioned in this pocket and the sensing catheter tunneled subcutaneously towards the tumor site (lowest mammary fat pad). The sensing pressure catheter was inserted into the body of the tumor (4-5 mm depth) and secured at the site of entry with tissue adhesive (Vetbond; 3M Company). Fluid communication between the tip of the pressure catheter and the tumor was tested by gentle compressing and decompressing the tubing connected to the telemetry transducer using a clamp. […] However, in most of the implanted tumors, intra-tumoral IFP pulse pressure waveform curves could be recorded unstintingly with high resolution confirming even more strongly the adequate sensing catheter placement. The total operation time for the implantation of the telemetry transmitter was about 20 min. Postoperative analgesia was provided using Buprenorphin (Temgesic®, Reckitt and Colman) injection of 0.05 mg/kg s.c. twice, immediately after surgery and 8-12 h later. Following surgery, the unconscious animal is placed on soft material in a clean cage with water ad libitum. An external heat lamp is used to maintain body temperature. The animals were allowed a period of 2 days to recover from surgery before starting acquisition of any physiological data. IFP was recorded continuously in all animals over 24 hours up to 5 days, and analyzed in 1-min cyclic runs for 10 sec, with a 500-Hz sampling rate. Values presented are means over 15 min periods.

BN472 tumors [3] = experiment: Efficacy experiment with orthotopic BN472 rat mammary carcinoma model; details: qd, p.o.; for T/C (%): 0.5% Methylcellulose suspension
From the text: BN472 tumors were established by orthotopic implantation of tumor fragments into the mammary fat pad of BN rats. Female Brown-Norway (BN) rats (obtained from Charles River (France)) weighing 160-180 g (6-7 weeks of age) were used for all experiments. They were identified by tail markings and kept in groups of 3-5 animals under normal conditions with access to food and water ad libitum. Tumor fragments of 25 mm^3 were taken from the cortex region and were transplanted orthotopically under the fat pad of the fourth left mammary gland of the recipients. For efficacy experiments, treatments were always initiated when the mean tumor volume in each group reached 400-500 mm^3.

[4] = system: basal induced angiogenesis; experiment: In vivo chamber implant angiogenesis assay, base line (no GF stimulation, PBS control chamber); parameters: species or system FVB mice
Protocol: as §1, with “PBS” for “PBS or VEGF (2 μg/mL)”, “at” for “at 12.5, 25 and”, “Basal” for “VEGF induces the growth of vascularized”, “tissue formed” for “tissue”, “chamber was carefully removed and” for “chamber. The angiogenic response can be quantified by measuring”, “were quantified.” for “of the tissue.”
as §2, §3
Tie-2 is a receptor tyrosine kinase which is specifically expressed on endothelial cells. For Tie-2 level determination, Nunc (Naperville, Ill.) Maxisorp 96-well plates were coated over night at 4° C. with the capture antibody, anti-Tie-2 AB33 (UBI, Hauppauge, N.Y.), with a concentration of 2 μg/mL (100 μL/well). Wells were washed in TPBS (Tween 80 PBS) and blocked by incubating with 3% Top-Block (Juro, Lucerne, Switzerland) for 2 hours at room temperature. […] Tie-2 antibody complexes were detected after incubation with p-nitrophenyl phosphate substrate (Sigma). The absorbance of the spectro-photometric reaction was determined with an ELISA reader at 405 nm. […]
as §4, with “PBS containing chambers induced a much thinner layer of tissue with very few blood vessels around control chamber.” left out

[5] = system: VEGF-induced vessel leakage; experiment: In vivo VEGF induced permeability assay (Miles assay); parameters: species or system FVB mice; details: 3, 6.25, 12.5 and 25 mg/kg p.o., 5 hours before VEGF injection in the ear
Protocol: FIG. 3: Effects of Compound A on VEGF induced permeability in vivo. FVB mice pre-treated with Compound A (3, 6.25, 12.5 and 25 mg/kg, p.o., for 5 h) were injected i.v. with Evans blue and challenged 30 minutes later with VEGF injection in the ear. Mice were then sacrificed and VEGF-mediated vessel leakage is quantified by measurement of the area (mm^2) of dye that extravasated at the site of VEGF injection using pixel-based threshold in computer-assisted image analysis software. Values are mean±SEM. *p<0.05, statistical significance of inhibition. The total number of animals per group is given in brackets.
200 μl of Evans blue (0.5%) was injected into the tail vein of female FVB mice. Thirty minutes following administration of the dye, the mice were anaesthesized (3% Isoflurane in O2, Forene®, Abbott AG, Cham, Switzerland) and then placed on an operating field maintained at a temperature of 39° C. Their ears were extended over a steel cone fitted with a double-sided sticker to expose the dorsal surface. […] VEGF-mediated vessel leakage is quantified by measurement of the area (mm^2) of dye that extravasated at the site of VEGF injection using pixel-based threshold in a computer-assisted image analysis software (KS-400 3.0 imaging system, Zeiss, Germany). […]

[6] = 12.5 mg/kg p.o. once a day, exp. 2, mean ± SEM
[7] = 25 mg/kg p.o. once a day, exp. 2, mean ± SEM
[8] = 50 mg/kg p.o. once a day, exp. 1, mean ± SEM
[9] = 50 mg/kg p.o. once a day, exp. 2, mean ± SEM
[10] = 50 mg/kg, chamber without growth factor

## Cc1nc(NC(=O)N2CCC[C@H]2C(N)=O)sc1-c1ccnc(C(C)(C)C(F)(F)F)c1 [Compound A, (S)-Pyrrolidine-1,2-dicarboxylic acid 2-amide 1-({4-methyl-5-[2-(2,2,2-trifluoro-1,1-dimethyl-ethyl)-pyridin-4-yl]-thiazol-2-yl}-amide)]
[1]; 12.5 mg/kg p.o. once a day, exp. 1, mean ± SEM
  % inhibition VEGF-stimulated, Capsule weight: 64 ± 33 (3) %
[1]; [6]
  % inhibition VEGF-stimulated, Capsule weight: 74 ± 24 (4) %
  % inhibition VEGF-stimulated, Total Tie-2: 58 ± 22 (4) %
[1]; 25 mg/kg p.o. once a day, exp. 1, mean ± SEM
  % inhibition VEGF-stimulated, Capsule weight: 84 ± 5 * (3) %
[1]; [7]
  % inhibition VEGF-stimulated, Capsule weight: 106 ± 28 * (4) %
  % inhibition VEGF-stimulated, Total Tie-2: 113 ± 38 * (4) %
[1]; 50 mg/kg given daily
  Tie-2 levels of the capsule, VEGF chamber: returned to the baseline or even below
[1]; [8]
  % inhibition VEGF-stimulated, Capsule weight: 88 ± 12 * (4) %
[1]; [9]
  % inhibition VEGF-stimulated, Capsule weight: 121 ± 11 * (6) %
  % inhibition VEGF-stimulated, Total Tie-2: 145 ± 9 * (6) %
[1]; once a day at 12.5, 25 and 50 mg/kg in solution
  angiogenic response induced by VEGF (weight and Tie-2 level of the capsule): inhibited significantly
BN472 tumors [2]; 12.5 mg/kg
  IFP pattern over three days of treatment compared with 25 mg/kg: very similar pattern
  time post last treatment at which IFP returned to initial values: ≤ 60 h
BN472 tumors [2]; 25 mg/kg
  time post last treatment without normalization of IFP diminution: > 72 h
BN472 tumors [2]; 25 mg/kg, 4 hours post treatment
  reduction in IFP: clear and significant reduction
BN472 tumors [2]; 25 mg/kg, 22 hours post dosage
  IFP change at max after first treatment: −25%
BN472 tumors [2]; 25 mg/kg, second treatment at time point 24 hours
  IFP inhibition after second treatment: −36%
BN472 tumors [2]; 25 mg/kg, third treatment, sustained for 48 hours
  IFP inhibition after third treatment: −43%
BN472 tumors [3]; 20 mg/kg
  % change of body weight corrected: 1.2 ± 0.5%
  Mean fold change in tumor growth: 4.6 ± 0.8
  Survival (Survivors/total): 5/5
  Δ Body weight (mean g ± SEM): 4.0 ± 1.1 g
  Δ tumor volume (mean mm^3 ± SEM): 1725 ± 283 * mm^3
  T/C (%): 36% and 36 * %
BN472 tumors [3]; 40 mg/kg
  % change of body weight corrected: −1.8 ± 0.5%
  Mean fold change in tumor growth: 3.3 ± 0.2
  Survival (Survivors/total): 5/5
  Δ Body weight (mean g ± SEM): -2.5 ± 0.9 g
  Δ tumor volume (mean mm^3 ± SEM): 1108 ± 198 * mm^3
  T/C (%): 23% and 23 * %
[4]; [8]
  % inhibition Base line (no GF stimulation), Capsule weight: 14 ± 11 (2) %
[4]; [9]
  % inhibition Base line (no GF stimulation), Capsule weight: 12 ± 10 (3) %
  % inhibition Base line (no GF stimulation), Total Tie-2: 29 ± 9 * (3) %
[4]; [10]
  Tie-2 levels, basal induced angiogenesis: significantly reduced
  tissue weight, basal induced angiogenesis: did not affect tissue weight
[5]
  abrogation of VEGF-induced Evans blue dye extravasation: up to 90%
